For data set [1] the following is noted: room temperature; data from WO 2007/144005 A1 and WO 2010/121621 A1; cited from earlier work.
A short description of data set [2]: Gravimetric moisture sorption/desorption cycle. Format: physicochemical. The conditions noted are these: for Δm (0-80% RH), water absorption: 25° C.; for Structural changes during moisture sorption: sorption desorption cycle, XRPD. The procedure:
Moisture sorption isotherms were recorded with an SPSx-1μ moisture sorption analyzer (ProUmid, Ulm). The measurement cycle was started at 3% relative humidity (RH). Then the RH was increased from 5% to 75%, decreased to 0% and increased to 80% in 5% steps. Finally the RH was decreased to 0% in 10% steps and equilibrated in a last step to 35%. The time per step was set to a minimum of 1 hour and a maximum of 3 hours. If an equilibrium condition with a constant mass of ±0.01% within 1 hour was reached before the maximum time for all examined samples, the sequential humidity step was applied before the maximum time of 3 hours. If no equilibrium was achieved, the consecutive humidity step was applied after the maximum time of 3 hours. The temperature was 25±0.1° C. The final water content was determined by coulometric Karl Fischer titration.
Coulometric Karl Fischer titration was performed with a Metrohm 831 KF Coulometer equipped with a double-platinum detecting electrode, a Metrohm 832 KF Thermoprep oven (130° C.) and Hydranal Coulomat AK as Karl Fischer reagent.

Data set [3] is described as follows: Slurry experiments in n-heptane for thermodynamic stability (Examples 12-13). The conditions noted are these: room temperature. The data set is classed as physicochemical. The procedure:
Slurry experiments were performed to determine the order of the thermodynamic stability of the solid state forms at room temperature (see also Examples 12-13 of the present invention).
35 mg of vortioxetine acetate form Ill was suspended in 0.5 mL n-heptane and stirred with a magnetic stirrer at room temperature for 4 weeks.
25 mg of vortioxetine acetate form I was suspended in 0.5 mL n-heptane and stirred with a magnetic stirrer at room temperature for 24 h.

Data set [4] in a line: Water solubility determination of vortioxetine acetate form III (Example 9). Format: physicochemical. As for the experimental part:
100 μL water was added to 100.34 mg of vortioxetine acetate form Ill. The mixture was vigorously shaken for 2 min and placed at 25° C. for 15 min. The solid was not completely dissolved, therefore a further 100 μL of water was added and the dissolving procedure repeated. […] According to […]

Data set [5] in a line: Stress tests at increased relative humidity with XRPD analysis (Examples 10-11). The data set is classed as physicochemical. The procedure: X-ray powder diffractograms (XRPD) were obtained with an X'Pert PRO diffractometer (PANalytical, Almelo, The Netherlands) equipped with a theta/theta coupled goniometer in transmission geometry, programmable XYZ stage with well plate holder, Cu-Kα1,2 radiation source (wavelength 0.15419 nm) and a solid state PIX'cel detector. The diffractograms were recorded at a tube voltage of 45 kV, tube current of 40 mA applying a step size of 0.013° 2-theta with 40 s per step (255 channels) in the angular range of 2° to 40° 2-theta at ambient conditions. A typical precision of the 2-theta values is in the range of about ±0.2° 2-theta. Thus a diffraction peak that appears at 5.0° 2-theta can appear between 4.8 and 5.2° 2-theta on most X-ray diffractometers under standard conditions.
42 mg of vortioxetine acetate form Ill was stressed at 40° C./75% RH for 4 weeks.
34 mg of vortioxetine acetate form Ill were stressed at RT/97% RH for 4 weeks.

Where [6] appears, read: listed as acetate form I, acetate.
The mark [7] stands for this setting: listed as acetate form III, acetate.

The text below walks through data of US9732053B2, “1-[2-(2,4-dimethylphenylsulfanyl) phenyl]piperazine acetate in crystalline form” (LEK PHARMACEUTICALS D.D., priority 2013, dated 2017).

Where a name gives a salt, the structure may show the parent alone.

Usually solubility stands for the dissolved amount per volume that the medium holds.

With `CC(O)C(=O)O.Cc1ccc(Sc2ccccc2N2CCNCC2)c(C)c1` [DL-lactate form β], the Aqueous solubility in data set [1] is 8 mg base/mL.

Consider `Br.Cc1ccc(Sc2ccccc2N2CCNCC2)c(C)c1` [HBr form α], for which, in data set [1], the Aqueous solubility is 2 mg base/mL.

For the compound `Br.Cc1ccc(Sc2ccccc2N2CCNCC2)c(C)c1` [HBr form β], the Aqueous solubility in data set [1] is 1.2 mg base/mL.

`Cc1ccc(Sc2ccccc2N2CCNCC2)c(C)c1` [HCl MH]: the Aqueous solubility in data set [1] is on record as 2 mg base/mL.

`Cc1ccc(Sc2ccccc2N2CCNCC2)c(C)c1.Cl` [HCl]: the Aqueous solubility in data set [1] is reported as 3 mg base/mL.

Take `CC(O)C(=O)O.Cc1ccc(Sc2ccccc2N2CCNCC2)c(C)c1` [L-lactate form MH2]: the Aqueous solubility in data set [1] was 26 mg base/mL.

Take `Cc1ccc(Sc2ccccc2N2CCNCC2)c(C)c1` [free base, 1-[2-(2,4-Dimethylphenylsulfanyl)phenyl]piperazine]: the Aqueous solubility in data set [1] is listed as 0.1 mg base/mL.

Turning to `CC(=O)O.Cc1ccc(Sc2ccccc2N2CCNCC2)c(C)c1` [vortioxetine acetate form I, 1-[2-(2,4-dimethylphenylsulfanyl)phenyl]piperazine acetate], the “Δm (0-80% RH), water absorption” value is “+2%” in data set [2] (setting [6]) and 2% in data set [2] (listed as form I, acetate). The “Structural changes during moisture sorption” value in data set [2] (setting [6]) is recorded as “partial decomposition to free base”; in data set [2] (listed as form I, acetate), “partial decomposition of the acetate salt to the free base”. Further, the “Structural changes after slurry (XRPD)” value in data set [3] (stirred 24 h, acetate) is listed as “transformed to form III”; in data set [3] (stirred 24 h, listed as Form I of vortioxetine acetate) it was “undergoes a transition to form III”.

For the compound `CC(=O)O.Cc1ccc(Sc2ccccc2N2CCNCC2)c(C)c1` [vortioxetine acetate form III, 1-[2-(2,4-dimethylphenylsulfanyl)phenyl]piperazine acetate], the “Aqueous solubility calculated as free base” value in data set [4] (25° C. / room temperature, converted from acetate salt by Equation 1) was 278 mg base/mL. In addition, in data set [4] (thermodynamic from solid, 25° C., 100.34 mg dissolved in 300 μL, read-out: Solubility of the acetate salt in water), the solubility amounted to 334 mg/mL. In addition, the “Δm (0-80% RH), water absorption” value in data set [2] (setting [7]) is listed as “+0.4%^”. Moreover, the “Hygroscopicity according to European Pharmacopoeia” value in data set [2] (gravimetric moisture sorption desorption curve, FIG. 6) is “only slightly hygroscopic”. In addition, the Water content result is listed as “about 0.3%” in data set [2] (relative humidity of about 0%); “less than 0.7%” in data set [2] (relative humidity of about 80%, acetate); “about 0.7%” in data set [2] (relative humidity of about 80%, listed as form III of vortioxetine acetate, acetate). In addition, the “Structural changes during moisture sorption” value in data set [2] (setting [7]) is given as “no changes from 0-97% RH”. In addition, the “Structural changes after slurry (XRPD)” value in data set [3] (stirred 4 weeks, acetate) is on record as “does not undergo any transformation”; in data set [3] (stirred 4 weeks, listed as vortioxetine acetate form Ill), “no structural changes”. Also, the “Structural changes after stress (XRPD)” value in data set [5] (40° C./75% RH for 4 weeks) and in data set [5] (RT/97% RH for 4 weeks) was “no structural changes” each time.

In the case of fumarate, in data set [1], the Aqueous solubility was 0.4 mg base/mL.

On to maleate, for which, in data set [1], the Aqueous solubility result is “≈1 mg base/mL”.

As for phosphate, the Aqueous solubility result in data set [1] is on record as “≈1 mg base/mL”.
